Assay results: US11357743B2, “Ketamine and propofol admixture” (Mayo Foundation for Medical Education and Research, priority 2017, dated 2022)

Legend:
[1] = Ketofol vs etomidate for emergent endotracheal intubation in critically ill patients (randomized clinical trial); type: in vivo, human; conditions: share of group
[2] = Nursing and patient assessment surveys after induction of general anesthesia with propofol or ketofol (randomized, double-blinded controlled trial)
Description: 85 patients of ASA Class 1-2 scheduled for surgical procedures that involved general anesthesia were assigned to one of two arms, one involving induction with propofol and the other involving induction with “ketofol” (a ketamine/propofol combination) in a randomized, double-blinded controlled trial. Patients were placed on standard ASA monitors including a BIS monitor and a noninvasive cardiac output monitor (NICOM) prior to induction of general anesthesia.
One minute before induction, baseline hemodynamics were recorded with standard ASA monitors as well as with the NICOM. Providers were given one 20 ml syringe and one 10 ml syringe for rescue if needed. As part of the induction, fentanyl (1-2 mcg/kg) and any relaxant excluding succinylcholine and pancuronium was given. The 20 ml syringe in both groups looked identical, appeared to be propofol but depending on the group they were randomized to, it represented either 2 mg/kg of propofol (propofol group) or 0.75 mg/kg of ketamine and 1.5 mg/kg of propofol (“ketofol” group). The 10 ml rescue syringe, if used, represented 1 mg/kg of propofol (propofol group) or 0.25 mg/kg of ketamine and 0.5 mg/kg of propofol (“ketofol” group). Hemodynamics were recorded every minute for a total of 30 minutes post-induction. During this time, anesthesia was maintained with any volatile agent excluding nitrous oxide. […] Patients were given survey questions that centered on emergence, discharge times, pain control, and nausea/vomiting. In addition, nurses were also asked to fill out a survey which dealt with similar questions.

[3] = Likert scaled responses from 0 (strongly disagree) to 7 (strongly agree)
[4] = Likert scaled responses from 0 (very poorly) to 7 (perfectly)

Row | SMILES | Serious adverse events reported [1] [%] | Patient Assessment: Emergence (woke up well), Mean [2, 3] | Patient Assessment: No PONV, Mean [2, 3] | Patient Assessment: No Pain, Mean [2, 3] | Nursing Assessment: Discharge (from unit), Mean [2, 4] | Nursing Assessment: Emergence (wake up), Mean [2, 4] | Nursing Assessment: Protection from PONV, Mean ([2]; Likert scaled responses from 0 (very poorly) to 7 (perfectly), PONV = post-operative nausea/vomiting)
1 | CCOC(=O)c1cncn1[C@H](C)c1ccccc1 [etomidate] | 5 |  |  |  |  |  | 
2 | CC(C)c1cccc(C(C)C)c1O [Propofol, 2,6-diisopropylphenol] |  | 5.5 | 5.5 | 3.8 | 5.1 | 5.4 | 5.5
